Consider 4 molecules from US20120156150A1, “Composition for Improving Skin Condition Comprising Extract from Black Tea as Active Ingredient” (Keimyung University Industry Academic Cooperation Foundation, priority 2010, published 2012).

Marks after values point to notes of the source that are not given here.

Data set [1] is described as follows: Electron donating ability (DPPH radical scavenging, Blois' method). As to the method: DPPH radical scavenging effect was measuring according to the Blois' method (1958). […] After adding 1 mL of the test sample in a test tube, 4×10^−4 M DPPH (4 mL) was added. The resulting mixture was shaken vigorously, allowed to stand in warm water of 60° C. for 10 seconds, and absorbance was measured at 525 nm. BHT was used as the positive control group. Then, free radical scavenging activity of each solution was calculated as “% inhibition” according to the following equation: % inhibition=[1−(Asample/Ablank)]×100, wherein Ab1ank is the absorbance of the control group (excluding the test sample) and Asample is the absorbance of the test compound.
On the technique in general: The DPPH test is a chemical assay of radical scavenging.

The test system of data set [2] is Melan-a cells. The experiment in a line: Melanin analysis in Melan-a cells. The format is cell-based, mouse. The conditions noted are these: 12.5 μg/mL, compared with the control group. On the procedure: (§1) Melan-a cells were purchased from Dr. Dorothy Bennett (St. George's Hospital, UK). Immortalized Melan-a cells with high pigment content are derived from C57BL/6 mouse. The cells were cultured using Roswell Park Memorial Institute (RPMI)-1640 medium containing 10% fetal bovine serum (FBS), 1% penicillin/streptomycin (P/S) and 200 nM 12-O-tetradecanoylphorbol 13-acetate (TPA) in a 10% CO2 incubator at 37° C. for 72 hours.
Melan-a cells were seeded on a 96-well plate (2×10^4 cells/well) and cultured in a 10% CO2 incubator at 37° C. for 24 hours. Then, after adding 200 μL of AT, KA, EGCG, GT, WT or BT diluted to various concentrations (1.563, 3.125, 6.25 and 12.5 μg/mL) using RPMI-1640 medium to the wells, the cells were cultured in a 10% CO2 incubator at 37° C. for 72 hours, and then washed. This procedure was repeated several times. After dissolving Melanin with 1N NaOH, absorbance was measured at 490 nm using an ELISA reader. Melanin content (%) was calculated according to the following equation: % melanin content=(Asample/Ablank)×100, wherein Ablank is the absorbance of the control group (excluding the test sample) and Asample is the absorbance of the test compound.

Data set [3] has as its system Melan-a cells. The experiment in a line: MTT assay, viability of Melan-a cells. In kind it is cell-based, mouse. On the procedure:
as §1
Melan-a cells were seeded on a 96-well plate (0.5×10^4 cells/well) and cultured in a 10% CO2 incubator at 37° C. for 24 hours. After adding 200 μL of AT, KA, EGCG, GT, WT or BT diluted to various concentrations (3.125, 6.25, 12.5, 25 and 50 μg/mL) using RPMI-1640 medium to the wells, the cells were cultured in a 10% CO2 incubator at 37° C. for 48 hours. Then, the cells were cultured in a medium containing […] in a 10% CO2 incubator at 37° C. for 3 hours. Subsequently, after settling the cells by centrifuging the plate at 1,000 rpm for 10 minutes, the medium was removed. Then, 200 μL of DMSO was added and the cells were suspended for 15 minutes in a plate shaker. Absorbance was measured at 540 nm using an ELISA reader. Cell viability (%) was calculated according to the following equation: % cell viability=(Asample/Ablank)×100, wherein Ablank is the absorbance of the control group (excluding the test sample) and Asample is the absorbance of the test compound.

In data set [4] the target is T1, tyrosinase (Mus musculus, UniProt P11344).
T1 construct: endogenous in cells; host or cells: Melan-a cells
T1 sequence (P11344 19-533): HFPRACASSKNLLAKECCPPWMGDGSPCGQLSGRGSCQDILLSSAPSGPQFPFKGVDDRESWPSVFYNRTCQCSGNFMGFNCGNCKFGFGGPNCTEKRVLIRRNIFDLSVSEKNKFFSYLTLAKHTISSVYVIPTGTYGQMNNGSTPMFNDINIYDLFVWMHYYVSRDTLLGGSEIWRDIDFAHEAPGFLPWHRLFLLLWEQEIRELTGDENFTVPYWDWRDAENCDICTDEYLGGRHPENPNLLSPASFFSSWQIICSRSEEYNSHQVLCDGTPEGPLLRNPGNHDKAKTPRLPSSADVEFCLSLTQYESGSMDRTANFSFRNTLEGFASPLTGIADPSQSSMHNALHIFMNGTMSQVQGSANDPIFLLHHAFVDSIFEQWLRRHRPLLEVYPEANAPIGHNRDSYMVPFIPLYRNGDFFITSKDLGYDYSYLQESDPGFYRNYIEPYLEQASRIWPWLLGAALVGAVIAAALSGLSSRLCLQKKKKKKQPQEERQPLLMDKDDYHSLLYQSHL
The data set can be described thus: Cell-extracted tyrosinase activity of Melan-a cells. In kind it is biochemical. The conditions noted are these: 12.5 μg/mL, compared with the control group. On the procedure:
(§2) Melan-a cells were seeded on a 60 φ cell culture dish (4×10^5 cells/well) and cultured in a 10% CO2 incubator at 37° C. for 72 hours. After washing with PBS, the cells were suspended by adding 200 μL of 1% triton X-100 to the culture dish, transferred to an e-tube, and fixed on ice. 60 minutes later, after shaking for 2-3 seconds, the cells were centrifuged at 4° C. and 14,000 rpm for 20 minutes to obtain 50 μL of protein, which was mixed with 49 μL of 0.1 M phosphate buffer (pH 6.8) and 1 μL of AT, EGCG, GT, WT or BT (1.563, 3.125, 6.25 or 12.5 μg/mL). After allowing the mixture to stand for 1 hour and adding 100 μL of L-DOPA, the mixture was incubated in a 10% CO2 incubator at 37° C. for 1 hour. Absorbance was measured at 490 nm using an ELISA reader. Tyrosinase activity was calculated according to the following equation: % inhibition=[1−(Asample/Ablank)]×100, wherein Ablank is the absorbance of the control group (excluding the test sample) and Asample is the absorbance of the test compound.

The target of data set [5] is T1, tyrosinase. The data set can be described thus: Intracellular tyrosinase activity of Melan-a cells. The format is biochemical. The conditions noted are these: 12.5 μg/mL, compared with the control group. As to the method: as §2, with “for 24” for “for 72”, “and Asampie” for “and Asample”
Data set [6] relates to tyrosinase. The data set can be described thus: Western blotting, expression of tyrosinase protein in Melan-a cells. In kind it is cell-based, mouse. On the procedure: Protein concentration in the cell lysate was measured using the Pierce protein assay kit (Pierce Biotechnology, Inc., Rockford, USA), using BSA as standard. After adding same quantity of protein ([…]) on each lane, the proteins were separated by electrophoresis on 10% polyacrylamide gel. After transblotting onto nitrocellulose membrane, the membrane was incubated with PEP7 (1:10000 dilution, anti-tyrosinase antibody), PEP1 (1:10000 dilution, anti-TRP1 antibody) and PEP8 (1:10000 dilution, anti-TRP2 antibody). Then, the membrane was incubated with horseradish peroxidase-conjugated anti-rabbit IgG (1:1000 dilution; Amersham, Bucks, UK). Immunoreactive bands were detected by chemiluminescence using the ECL western blotting detector (Amersham, Bucks, UK). Band intensity was measured using the ImageJ program (NIH, Bethesda, USA). β-actin was used as internal control group for the immunoblotting.
(A western blot detects proteins with antibodies after separation by electrophoresis.)

A further data set deals with S-100 protein. The data set can be described thus: Immunohistochemical S-100 staining. The format is in vivo, brown guinea pig. The conditions noted are these: week 4; 2% sample. On the procedure: (§3) After dehydration, followed by washing with xylene and embedding in paraffin, 4 μm-thick samples were prepared. The sample was adhered on a coating slide and stained using the BenchMark XT automated immunostainer (Ventana Medical Systems, USA) after removing paraffin. […] Following reaction with S-100 and HMB-45 primary antibodies diluted to 1:100, the sample was washed with reaction buffer, reacted with biotin for 20 minutes, and then reacted with streptavidin for 25 minutes. After coloring with diaminobenzidine (DAB) using the Ventana detection kit), the sample was stained for observation using an optical microscope.

The test system of data set [7] is melanin pigmentation in the epithelium. The experiment in a line: Fontana-Masson's silver staining, melanin-pigmented area. In kind it is in vivo, brown guinea pig. The conditions noted are these: week 4; 2% sample.
Protocol: In order to observe the morphological change of the skin tissue using an optical microscope, the extracted skin tissue was fixed in a 10% neutral formalin solution for 12 hours and washed with flowing water. After dehydrating in 70, 80, 95 and 100% ethanol followed by washing with xylene, the tissue was embedded in paraffin and 4 μm-thick samples were prepared using a microtome.
Paraffin was removed from the sample using xylene. After staining the sample for 60 minutes in silver nitrate solution at 56° C. according to the Masson's method (1928), followed by washing, color-toning 0.2% gold chloride solution and washing again, the sample was kept in 5% sodium thiosulfate solution for 5 minutes. Subsequently, after washing the sample once again, followed by counterstaining in nuclear fast red solution, dehydration in 95%, 95%, 100% and 100% alcohol and washing with xylene, the sample was put in Canada balsam for microscopic observation. The percentage of the melanin-pigmented area was calculated using an image analysis software.
In data set [8] the test system is UVB-induced hyperpigmentation. The data set can be described thus: Melanin index (mexameter), brown guinea pig. The format is in vivo. The conditions noted are these: 2% sample topical.
Protocol: Three brown guinea pigs weighing 450-550 g were purchased from Oriental Yeast Co. Ltd. (OYC; Japan). The animals were accustomed to the test environment for 7 days. The animals were housed in individual cages under the environment of 22±1° C. and 50±5% relative humidity with 12-hour alternate dark/light cycles. Feed and water were given ad libitum.
UVB-induced hyperpigmentation was elicited on the back of the brown guinea pig according to the method of Choi et al. (2004). After anesthetizing the guinea pig with ketamine hydrochloride (100 mg/kg BW), 24 separate areas (φ 12 mm) on the skin of the back was exposed to UVB radiation (302-nm sunlamp). The areas were exposed to UVB of 500 mJ/cm^2 for 3 consecutive weeks, once a week. That is, a total of 1,500 mJ/cm^2 of UVB was radiated.
On day 10 after the final UVB radiation, 30 μL (1.06 mg/cm^2/day) of 2% HQ, EGCG, GT, WT or BT was topically applied for 4 weeks to the hyperpigmented areas (9 areas per each) using a micropipette, twice a day, and 4 days a week. Saline was used as control, and propylene glycol:ethanol:water (5:3:2) was used as vehicle control.
Before and after the topical application of the test sample, change in melanin pigmentation was measured 3 times in a non-invasive manner using a mexameter, once a week. The degree of pigmentation was analyzed by averaging the measured values.
In a further data set the test system is gp100 protein. The experiment in a line: Immunohistochemical HMB-45 staining (gp100). In kind it is in vivo, brown guinea pig. The conditions noted are these: week 4; 2% sample. On the procedure:
as §3

On to `Cc1cc(C(C)(C)C)c(O)c(C(C)(C)C)c1` [BHT, 2,6-di-tert-butyl-4-methylphenol], for which the Electron donating ability is reported as 89% in data set [1] (800 μg/mL) and 55% in [1] (1,000 μg/mL).

In the case of `O=c1cc(CO)occ1O` [KA, kojic acid], in the data set with Melan-a cells [2], the “melanin content decreased by” value is reported as 7%. The “maximum permissible level (MPL)” value in the data set with Melan-a cells [3] (mouse, 48 h) is “exceeds 50 μg/mL”. Further, the Electron donating ability in [1] (800 μg/mL) is on record as 19%.

As to `OC[C@H]1O[C@@H](Oc2ccc(O)cc2)[C@H](O)[C@@H](O)[C@@H]1O` [AT, arbutin], the “tyrosinase activity in cell extract (decreased) by” value on tyrosinase [4] came to 13%. For the same molecule, in the data set with Melan-a cells [2], the “melanin content decreased by” value was found to be 18%. For the same molecule, the “intracellular tyrosinase activity decreased by” value on tyrosinase [5] stood at 12%. The “maximum permissible level (MPL)” value in the data set on Melan-a cells [3] (mouse, 48 h) is reported as “exceeds 50 μg/mL”. Moreover, the “expression of tyrosinase protein” value with tyrosinase [6] is on record as “no significant decrease”. The Electron donating ability in data set [1] (800 μg/mL) is 44%.

As to `O=C(O[C@@H]1Cc2c(O)cc(O)cc2O[C@@H]1c1cc(O)c(O)c(O)c1)c1cc(O)c(O)c(O)c1` [EGCG, epigallocatechin gallate], in the data set with S-100 protein, the “% of S-100 Protein” value is 5.3 ± 0.7^bc %; the “S-100 Protein area” value is reported as 611 ± 81 μm^2; the “area of S-100 protein expression, decrease by, as compared to the control groups” value is on record as 62%. Besides, on tyrosinase [4], the “tyrosinase activity in cell extract (decreased) by” value turned out to be 18%. The “melanin content decreased by” value with Melan-a cells [2] is 29%. Besides, the “intracellular tyrosinase activity decreased by” value on tyrosinase [5] turned out to be 61%. In data set [7], the “% of melanin pigment” value is given as 10.5 ± 2.0^c %; the Melanin pigment area was found to be 1174 ± 189 μm^2; the “melanin pigmented area decreased by, as compared to the control group” value came to 48%. Besides, the “maximum permissible level (MPL)” value in the data set on Melan-a cells [3] (Melan-a cells) came out at 12.5 µg/mL. The melanin index in data set [8] (week 0) is on record as 723.5 ± 11.3^a AU. For the same molecule, the melanin index in data set [8] (week 1) was 704.1 ± 12.5^a* AU. In data set [8] (week 2), the melanin index was 675.9 ± 12.4^c AU. Further, the melanin index in data set [8] (week 3) was 636.6 ± 12.2^b AU. Also, in data set [8] (week 4), the melanin index is given as 582.9 ± 12.8^b AU and the “melanin index decreased by, as compared to the group C” value is on record as 17%. The Electron donating ability in data set [1] (800 μg/mL) stood at 94%. In the data set with gp100 protein, the “% of Melanin pigment (Table 5, gp 100 protein)” value is reported as 5.3 ± 0.8^c %; the “Melanin pigment (area; Table 5, gp 100 protein)” value is 600 ± 107 μm^2; the “area of gp 100 protein expression, decrease by, as compared to the group C” value turned out to be 61%.
